In patent publication US9540379B2 (priority 2011, dated 2017) one finds IC50 data, which are given here for 13 compounds.

Like-named read-outs stand apart in the source and are kept apart here. A value given as a limit tells only on which side of the number the result lay.

Assay [1] addresses T1, PDE10A (Homo sapiens (Human), UniProt Q9Y233). Kind of assay: biochemical.
Method: (§1) Inhibition of Recombinant PDE10A (Expressed in Baculovirus/SF21 Cells)
(§2) PDE activity was determined in a one step procedure in microtiter plates. The reaction mixture of 100 μl contained 50 mM Tris-HCl/5 mM MgCl2 buffer (pH=7.4, Sigma, Deisenhofen, Germany; Merck, Darmstadt, Germany) 0.1 μM [3H]-cAMP (PerkinElmer, Shelton, USA) and the enzyme. Non-specific enzyme activity was determined without the enzyme.
(§3) The reaction was initiated by addition of the substrate solution and was carried out at 37° C. for 30 minutes. Enzymatic activity then was stopped by addition of 25 μl Ysi-SPA-beads (PerkinElmer, Shelton, USA). One h later the mixture was measured in a liquid scintillation counter for microtiter plates (Microbeta Trilux). The Biomek 2000 (Beckman) was used routinely for pipetting of the incubation mixture. […] For determination of IC50 values the Hill-plot, 2-parameter-model, was used.
Assay [2] has as its target T1, PDE10A. The following applies: read-out: Inhibition of PDE10A, IC50.
Method: as §1, §2, §3

T1 sequence (Q9Y233 other isoform, or with tags, fused parts or gaps): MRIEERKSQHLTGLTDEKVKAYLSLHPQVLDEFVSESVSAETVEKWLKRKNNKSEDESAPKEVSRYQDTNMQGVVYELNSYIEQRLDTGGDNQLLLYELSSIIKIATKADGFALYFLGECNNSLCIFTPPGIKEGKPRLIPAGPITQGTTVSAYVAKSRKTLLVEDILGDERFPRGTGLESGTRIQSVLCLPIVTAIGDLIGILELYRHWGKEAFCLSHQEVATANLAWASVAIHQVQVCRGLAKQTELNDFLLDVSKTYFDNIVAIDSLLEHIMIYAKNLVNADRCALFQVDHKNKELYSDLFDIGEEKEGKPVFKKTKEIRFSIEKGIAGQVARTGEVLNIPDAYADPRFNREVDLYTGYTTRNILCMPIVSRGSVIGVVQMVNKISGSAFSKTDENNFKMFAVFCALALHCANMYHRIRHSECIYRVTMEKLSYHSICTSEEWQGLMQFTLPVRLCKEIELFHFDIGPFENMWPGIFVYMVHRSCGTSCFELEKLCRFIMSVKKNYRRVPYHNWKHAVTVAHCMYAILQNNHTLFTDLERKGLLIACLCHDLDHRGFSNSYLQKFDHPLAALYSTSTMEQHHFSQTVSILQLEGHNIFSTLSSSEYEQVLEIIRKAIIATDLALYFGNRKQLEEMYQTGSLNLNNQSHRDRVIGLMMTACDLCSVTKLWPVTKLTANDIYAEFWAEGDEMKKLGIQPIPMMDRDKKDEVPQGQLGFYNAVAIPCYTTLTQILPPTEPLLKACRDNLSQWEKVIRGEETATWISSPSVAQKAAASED

The term IC50 denotes the midpoint of a concentration-inhibition curve. Turning to `Cc1nc2cc(Cl)ccc2n2c(-c3cc(OCCCC(F)(F)F)ccc3Cl)nnc12` [Example 27, 7-Chloro-1-[2-chloro-5-(4,4,4-trifluoro-butoxy)-phenyl]-4-methyl-[1,2,4]triazolo[4,3-a]quinoxaline], at PDE10A [1], the IC50 was more than 1 µM.
Turning to `COCCOc1ccc(F)c(-c2nnc3cnc4cc(Cl)ccc4n23)c1` [Example 29, 7-Chloro-1-[2-fluoro-5-(2-methoxy-ethoxy)-phenyl]-[1,2,4]triazolo[4,3-a]quinoxaline], the IC50 against PDE10A [1] was more than 1 µM.
Still for that read-out and setting: with `CSc1ncccc1-c1nnc2c(C)nc3cc(C(F)(F)F)ccc3n12` [Example 69, 4-Methyl-1-(2-methylsulfanyl-pyridin-3-yl)-7-trifluoromethyl-[1,2,4]triazolo[4,3-a]quinoxaline] the figure was more than 1 µM.
`Cc1nc2cc(C(F)(F)F)ccc2n2c(-c3c(F)cccc3F)nnc12` [Example 70, 1-(2,6-Difluoro-phenyl)-4-methyl-7-trifluoromethyl-[1,2,4]triazolo[4,3-a]quinoxaline] had an IC50 at PDE10A [1] of 0.077 µM.
The same measure, in the same setting: with `COc1ccc2c(c1)nc(C)c1nnc(-c3c(F)cccc3F)n12` [Example 75, 1-(2,6-Difluoro-phenyl)-7-methoxy-4-methyl-[1,2,4]triazolo[4,3-a]quinoxaline] the figure was 0.334 µM; with `Cc1nc2cc(OCc3ccc(F)cc3)ccc2n2c(-c3ccccc3Cl)nnc12` [Example 77, 1-(2-Chloro-phenyl)-7-(4-fluoro-benzyloxy)-4-methyl-[1,2,4]triazolo[4,3-a]quinoxaline], 0.118 µM.
Still for that read-out and setting: under `Cc1nc2ccccc2n2c(-c3cc(OCCN4CCN(C)CC4)ccc3Cl)nnc12` [Example 94, 1-{2-Chloro-5-[2-(4-methyl-piperazin-1-yl)-ethoxy]-phenyl}-4-methyl-[1,2,4]triazolo[4,3-a]quinoxaline] stands more than 1 µM; under `Cc1nc2ccccc2n2c(-c3cc(OC[C@H](C)O)ccc3Cl)nnc12` [Example 103, (S) 1-[4-Chloro-3-(4-methyl-[1,2,4]triazolo[4,3-a]quinoxalin-1-yl)-phenoxy]-propan-2-ol], more than 1 µM.
Still for that read-out and setting: under `Cc1nc2ccccc2n2c(-c3cc(OC[C@@H](C)O)ccc3Cl)nnc12` [Example 104, (R) 1-[4-Chloro-3-(4-methyl-[1,2,4]triazolo[4,3-a]quinoxalin-1-yl)-phenoxy]-propan-2-ol] stands more than 1 µM; under `Cc1nc2ccccc2n2c(-c3cc(OCC(O)c4ccccn4)ccc3Cl)nnc12` (stereo not shown) [Example 105, 2-[4-Chloro-3-(4-methyl-[1,2,4]triazolo[4,3-a]quinoxalin-1-yl)-phenoxy]-1-pyridin-2-yl-ethanol], more than 1 µM; under `Cc1nc2ccccc2n2c(-c3cc(OCC(F)c4ccccn4)ccc3Cl)nnc12` (stereo not shown) [Example 106, 1-[2-Chloro-5-(2-fluoro-2-pyridin-2-yl-ethoxy)-phenyl]-4-methyl-[1,2,4]triazolo[4,3-a]quinoxaline], 0.963 µM.
Consider `Cc1ccc2nc(C)c3nnc(-c4cc(OCCCC(F)(F)F)ccc4Cl)n3c2c1` [Example 110, 1-[2-Chloro-5-(4,4,4,-trifluoro-butoxy)-phenyl]-4,8-dimethyl-[1,2,4]triazolo[4,3-a]quinoxaline], for which the IC50 at PDE10A [2] is more than 1 µM.
Take `Cc1nc2cc(C#N)ccc2n2c(-c3cc(OCCCC(F)(F)F)ccc3Cl)nnc12` [Example 111, 7-Cyano-1-[2-chloro-5-(4,4,4,-trifluoro-butoxy)-phenyl]-4-methyl-[1,2,4]triazolo[4,3-a]quinoxaline]: on PDE10A [2], the IC50 is more than 1 µM.
